The source of these data is patent publication US20220378727A1 (priority 2021, published 2022).

The subject of one data set is influenza A H1N1 virus. As to the kind of experiment: In vivo prophylactic protection against H1N1 virus. Set-up: species or system BALB/c mice. Conditions: for Lung histopathology (H&E) / Viral PA protein expression in lung (immunofluorescence): 3 d.p.i., data not shown; for Viral RNA load in lung tissues compared with PBS: day 3 post-challenge, 5 mg/kg i.t., one-way ANOVA; for Survival rate compared with PBS group: log-rank test, p<0.01. The protocol: BALB/c mice were used to investigate the in vivo activity of A2-TFN formulation against influenza A H1N1 virus. The mice were evaluated in divided into four groups (nine mice per group). Prior to virus inoculation, i.t. administration was performed under anesthesia in each group: (i) 20 μL of zanamivir solution (5 mg/mL); (ii) 50 μL of unformulated tamibarotene suspension (2 mg/mL); and (iii) 1 mg of A2-TFN powder. The dose of zanamivir or tamibarotene was 5 mg/kg per mouse. In the fourth group of mice, 50 μL of PBS was i.t. administered as negative control. At 2 h post administration, all the mice were i.n. inoculated with 20 μL of virus suspension containing 100 p.f.u. of HIN virus under anesthesia. Four mice in each group were euthanatized randomly on 3 d.p.i. and the lung tissues were harvested for viral load assay by qRT-PCR method. Animal survival, clinical symptoms and body weight were monitored for 14 days or until the humane endpoint (body weight loss more than 20%) was reached. The lung tissue histopathology of infected mice was examined by hematoxylin and eosin (H&E) and immunofluorescence staining. This experiment was conducted in two independent experiments (n=9 in each group).

Data set [1] deals with H1N1 virus. As to the kind of experiment: In vivo therapeutic effect against H1N1 virus, intranasal treatment. Set-up: species or system BALB/c mice. Conditions: for Viral RNA load in lung compared with PBS group: 3 d.p.i., zanamivir 2 mg/kg i.n., one-way ANOVA; for Viral RNA load in lung compared with PBS group / Survival rate: tamibarotene 0.1 mg/kg; for Survival rate: 14 d.p.i., five i.n. doses from 4 h post 10 p.f.u. H1N1, zanamivir 2 mg/kg, n=7; for Survival rate compared with PBS group: Log-rank test, p<0.01. The protocol:
To evaluate the therapeutic effect of tamibarotene formulation against H1N1 virus, BALB/c mice were i.n. inoculated with 20 μL of virus suspension containing 10 p.f.u. of H1N1 virus under anaesthesia. At 4 h post virus challenge, the first therapeutic dose was initiated and the mice were divided into four groups (11 mice per group) to receive 20 μL of each treatment via i.n. administration: (i) zanamivir solution (2 mg/mL); (ii) unformulated tamibarotene suspension (100 μg/mL); (iii) reconstituted A2-TFN solution (100 μg/mL); and (iv) PBS (as negative control). The dose of tamibarotene was 0.1 mg/kg, and the dose of zanamivir was 2 mg/kg. On day 1 and day 2 post-infection, the therapeutic doses were administered twice a day. On 3 d.p.i., four mice in each group were euthanatized randomly and the lung tissues were harvested for viral load assay by qRT-PCR method. Animal survival, clinical symptoms and body weight were monitored for 14 days or until the humane endpoint (body weight loss more than 20%) was reached. This experiment was conducted in two independent experiments (n=11 in each group).

Data set [2] in a line: Toxicity study in uninfected mice after intratracheal powder. It is filed as in vivo, BALB/c mice. Conditions: 1 mg powder intratracheally. Here is the method:
HPBCD only powder was prepared according to the same protocol as A2-TFN but without the addition of tamibarotene and tert-butyl alcohol. One milligram of A2-TFN powder or HPBCD powder, or 50 μL of phosphate buffer saline (PBS) was intratracheally administered in healthy BALB/c mice under anesthesia.

Data set [3] in a line: Dissolution study of fine particle dose in simulated lung fluid. It is filed as physicochemical. The protocol: The dissolution profile of A2-TFN powders was investigated using a jacketed beaker which contained 100 mL of simulated lung fluid as dissolution medium. The preparation of simulated lung fluid was according to Marques et al. (SLF3 in the article). The temperature was maintained at 37° C. and the medium was stirred at 75 rpm with a magnetic bar. As fine particle dose (FPD, aerodynamic diameter<5 μm) is considered to be the fraction of powder that can deposit in the deep lung region, the FPD of A2-TFN formulation was collected by a Fast Screening Impactor (FSI, Copley Scientific, UK) coupled with Breezhaler® as described before for dissolution study. Approximately 8.5±0.5 mg of A2-TFN powder was dispersed by FSI to separate an FPD (which contained an estimated amount of 0.5 mg of tamibarotene). The powders were placed on a glass fiber filter paper which was then transferred into the jacketed beaker. At pre-determined time intervals, 1 mL of dissolution medium was withdrawn and filtered through 0.45-μm membrane filter. Equal volume of pre-warmed fresh medium was refilled immediately. The unformulated tamibarotene powder was included as control for comparison. The concentration of tamibarotene was quantified by HPLC as described above. The dissolution study was carried out in triplicate.

A further data set relates to SARS-CoV-2. As to the kind of experiment: Plaque reduction assay for antiviral EC50, Vero E6 cells. The conditions noted are these: Severe acute respiratory syndrome coronavirus 2, Vero C1008. Format: cell-based. Here is the method:
Plaque reduction assay was performed to plot the 50% antiviral effective dose (EC50). Vero E6 cells were used for SARS-CoV-2 and MDCK cells for influenza A virus. Briefly, cells were seeded at 4×10^5 cells/well in 12-well tissue culture plates on the day before carrying out the assay. After 24 h of incubation, 50 p.f.u. of SARS-CoV-2 or H1N1 virus were added to the cell monolayer with or without the addition of drug compounds and the plates were further incubated for 1 h at 37° C. in 5% CO2 before removal of unbound viral particles by aspiration of the media and washing once with DMEM. Monolayers were then overlaid with media containing 1% low melting agarose (Cambrex Corporation, New Jersey, USA) in DMEM and appropriate concentrations of individual compound, inverted and incubated as above for another 72 h. The wells were then fixed with 10% formaldehyde (BDH, Merck, Darmstadt, Germany) overnight. After removal of the agarose plugs, the monolayers were stained with 0.7% crystal violet (BDH, Merck) and the plaques counted. The percentage of plaque inhibition relative to the control (i.e., without the addition of compound) wells were determined for each drug compound concentration. The EC50 was calculated using Sigma plot (SPSS) in an Excel add-in ED50V10. The plaque reduction assay experiments were performed in triplicate and repeated twice for confirmation.
(Plaque reduction counts the foci of infection that form in a cell layer.)

Data set [4] deals with H1N1 virus. As to the kind of experiment: Plaque reduction assay for antiviral EC50, MDCK cells. Format: cell-based. Conditions: Influenza A virus.
The conditions of data set [5]: plasma, i.p. drug suspension, 5 mg/kg tamibarotene, n=5.
Another data set relates to MERS-CoV. The conditions noted are these: from Yuan, et al., Nature Communications 2019, 10, 120; cited from earlier work.
A further data set in a line: in vivo. Conditions: BALB/c, mouse, ip, 5 mg/kg; for AUC(0-t): AUC0-8 h; for AUC(0-inf): AUC0-∞—D; for MRT last: MRT0-8 h.
Setting [6] is: lung, i.p. drug suspension, 5 mg/kg tamibarotene.
The mark [7] stands for this setting: plasma, i.p. drug suspension, 5 mg/kg tamibarotene.

Values joined by “and” are separate entries in the source; they are usually repeats but may differ in a detail not shown here. Equal values may be shown once. Read-outs that look alike come from different tables or passages of the source.

Regarding `CC(=O)N[C@H]1[C@H]([C@H](O)[C@H](O)CO)OC(C(=O)O)=C[C@@H]1N=C(N)N` [zanamivir], in the data set on influenza A H1N1 virus, the “Lung histopathology (H&E)” value is “alleviated”, the “Viral PA protein expression in lung (immunofluorescence)” value is given as “diminished but remained noticeable in bronchiolar epithelial cells”, the “Viral RNA load in lung tissues compared with PBS” value is reported as “no significant difference” and the “Survival rate compared with PBS group” value was “significantly higher”. The Survival rate with influenza A H1N1 virus (14 d.p.i., single i.t. dose 5 mg/kg 2 h before 100 p.f.u. H1N1, n=5) came out at 60%. For the same compound, in the data set with H1N1 virus [1], the “Viral RNA load in lung compared with PBS group” value is “not been significantly different”, the Survival rate worked out at 86% and the “Survival rate compared with PBS group” value is “significantly higher”.
On to 2-hydroxypropyl-β-cyclodextrin [HPβCD], for which the “Body weight of uninfected mice” value in [2] was “recovered more rapidly than A2-TFN group”. In addition, the “Toxicity in lung histopathology of uninfected mice” value in data set [2] (data not shown) is recorded as “No marked toxicity”.
Consider `CC1(C)CCC(C)(C)c2cc(NC(=O)c3ccc(C(=O)O)cc3)ccc21` [tamibarotene], for which, in [3] (Student's t-test, p<0.01), the “Cumulative dissolved drug after 24 h compared with A2-TFN powder” value is listed as “significantly lower”. In addition, the Drug dissolved result in [3] (within the first hour, 37° C.) was “approximately 20%”. Further, the response with SARS-CoV-2 was half-maximal at 5800 ± 1200 nM (EC50). The compound also showed an EC50 with H1N1 virus [4] of 1680 ± 980 nM. Moreover, in the data set with influenza A H1N1 virus, the “Lung histopathology (H&E)” value is “Severe alveolar damage and interstitial inflammatory infiltration”; the “Viral PA protein expression in lung (immunofluorescence)” value is “diminished but remained noticeable in bronchiolar epithelial cells”; the “Viral RNA load in lung tissues compared with PBS” value is “significantly lower”; the “Survival rate compared with PBS group” value was “significantly higher”. Also, the “Time by which all mice reached humane endpoint” value in the data set with influenza A H1N1 virus (single i.t. dose 5 mg/kg 2 h before 100 p.f.u. H1N1) is under 9 d.p.i. In the data set with H1N1 virus [1], the “Viral RNA load in lung compared with PBS group” value is listed as “significantly lower”, the Survival rate came to 71% and the “Survival rate compared with PBS group” value is on record as “significantly higher”. In [5], this compound displayed a Cmax of 14.2 ± 0.9 µM. In addition, the EC50 in the data set with MERS-CoV was 320 ± 26 nM. In addition, in “in vivo”, the Tmax was 30 min. In “in vivo” (setting [6]), this compound displayed an AUC(0-t) of 2400 ± 300 ng·h/mL, an AUC(0-inf) of 500 ± 60 ng·h/mL and an MRT last of 36 ± 12 min. For the same compound, in “in vivo” (setting [7]), the AUC(0-t) was 6000 ± 500 ng·h/mL, the total exposure AUC(0-inf) was 1500 ± 200 ng·h/mL and the MRT last was determined as 90 ± 12 min. In addition, in the data set “in vivo” (Cmax, lung, i.p. drug suspension, 5 mg/kg tamibarotene, n=5), the Cmax was 7.4 µM and 2600 ng/mL. Further, the half-life in “in vivo” (T1/2, lung, i.p. drug suspension, 5 mg/kg tamibarotene) was 30 ± 4.8 min. The same compound showed a half-life in the data set “in vivo” (T1/2, plasma, i.p. drug suspension, 5 mg/kg tamibarotene) of 108 ± 24 min.

Usually EC50 stands for the concentration at which the effect is half-maximal. What is called Cmax is the highest concentration seen after dosing. The Tmax is the time at which the peak concentration occurs. As a reminder, the AUC(0-t) is exposure summed from dosing to a finite time, without extrapolation to infinity. A low value points to low exposure. A word on the AUC(0-inf): it is the area under the concentration-time curve extrapolated to infinity. A word on the MRT last: it is the average time that molecules of a dose stay in the body. As usually defined, the half-life is the time needed for the level to fall by half in the phase considered. Read a high half-life as slow decline.
